Measured values reported in ChEMBL document CHEMBL3784958, “Disposition of sodium valproate in epileptic patients” (Br J Clin Pharmacol, 1978).

Key:
[1] = Initial plasma concentration in epileptic patient (6 patients) at 800 mg, iv administered as single dose by gas liquid chromatographic method; format: ADME, organism-based; conditions: human
[2] = Elimination rate constant in epileptic patient (6 patients) at 800 mg, iv administered as single dose by gas liquid chromatographic method; format: ADME, organism-based; conditions: human, in vivo
[3] = Half life in epileptic patient (6 patients) at 800 mg, iv administered as single dose by gas liquid chromatographic method; format: ADME, organism-based; conditions: human, in vivo
[4] = Extrapolated volume of distribution in epileptic patient (6 patients) at 800 mg, iv administered as single dose by gas liquid chromatographic method; format: ADME, organism-based; conditions: human, in vivo
[5] = Volume of distribution (area) in epileptic patient (6 patients) at 800 mg, iv administered as single dose by gas liquid chromatographic method; format: ADME, organism-based; conditions: human, in vivo
[6] = Apparent volume of distribution in epileptic patient (6 patients) at 800 mg, iv administered as single dose by gas liquid chromatographic method; format: ADME, organism-based; conditions: human, in vivo, read-out: Vd(app)
[7] = AUC (0 to 48 hrs) in epileptic patient (6 patients) at 800 mg, iv administered as single dose by gas liquid chromatographic method; format: ADME, organism-based; design: dose 800 mg, time < 48 hr, route intravenous; conditions: human, in vivo
[8] = AUC (0 to infinity) in epileptic patient (6 patients) at 800 mg, iv administered as single dose by gas liquid chromatographic method; format: ADME, organism-based; design: dose 800 mg, route intravenous, time infinity; conditions: human, in vivo
[9] = Total clearance in epileptic patient (6 patients) at 800 mg, iv administered as single dose by gas liquid chromatographic method; format: ADME, organism-based; conditions: human, in vivo
[10] = Cmax in epileptic patient (6 patients) at 800 mg, po administered as single dose by gas liquid chromatographic method; format: ADME, organism-based; design: dose 800 mg, route oral; conditions: human, in vivo
[11] = Tmax in epileptic patient (6 patients) at 800 mg, po administered as single dose by gas liquid chromatographic method; format: ADME, organism-based; conditions: human, in vivo
[12] = Elimination rate constant in epileptic patient (6 patients) at 800 mg, po administered as single dose by gas liquid chromatographic method; format: ADME, organism-based; conditions: human, in vivo
[13] = Half life in epileptic patient (6 patients) at 800 mg, po administered as single dose by gas liquid chromatographic method; format: ADME, organism-based; conditions: human, in vivo
[14] = system: Homo sapiens; experiment: Extrapolated volume of distribution in epileptic patient (6 patients) at 800 mg, po administered as single dose by gas liquid chromatographic method; format: ADME, organism-based; conditions: in vivo
[15] = system: Homo sapiens; experiment: Volume of distribution (area) in epileptic patient (6 patients) at 800 mg, po administered as single dose by gas liquid chromatographic method; format: ADME, organism-based; conditions: in vivo
[16] = AUC (0 to 48 hrs) in epileptic patient (6 patients) at 800 mg, po administered as single dose by gas liquid chromatographic method; format: ADME, organism-based; design: dose 800 mg, time < 48 hr, route oral; conditions: human, in vivo
[17] = AUC (0 to infinity) in epileptic patient (6 patients) at 800 mg, po administered as single dose by gas liquid chromatographic method; format: ADME, organism-based; design: dose 800 mg, route oral, time infinity; conditions: human, in vivo
[18] = Elimination rate constant in healthy volunteer (6 volunteers) at 800 mg, iv administered as single dose by gas liquid chromatographic method; format: ADME, organism-based; conditions: human, in vivo
[19] = Half life in healthy volunteer (6 volunteers) at 800 mg, iv administered as single dose by gas liquid chromatographic method; format: ADME, organism-based; conditions: human, in vivo
[20] = Volume of distribution (area) in healthy volunteer (6 volunteers) at 800 mg, iv administered as single dose by gas liquid chromatographic method; format: ADME, organism-based; conditions: human, in vivo
[21] = Apparent volume of distribution in healthy volunteer (6 volunteers) at 800 mg, iv administered as single dose by gas liquid chromatographic method; format: ADME, organism-based; conditions: human, in vivo, read-out: Vd(app)
[22] = Total clearance in healthy volunteer (6 volunteers) at 800 mg, iv administered as single dose by gas liquid chromatographic method; format: ADME, organism-based; conditions: human, in vivo
[23] = Tmax in healthy volunteer (6 volunteers) at 800 mg, po administered as single dose by gas liquid chromatographic method; format: ADME, organism-based; conditions: human, in vivo
[24] = Oral bioavailability in epileptic patient (6 patients) at 800 mg administered as single dose by gas liquid chromatographic method; format: ADME, organism-based; conditions: human, in vivo
[25] = system: Homo sapiens; experiment: Toxicity in epileptic patient (6 patients) at 800 mg, po and iv administered as single dose by gas liquid chromatographic method; format: organism-based; conditions: in vivo

SMILES: CCCC(CCC)C(=O)[O-].[Na+] [VALPROATE SODIUM]
- C0 [1]: 58.5 µg/mL
- k el [2]: 2.21e-05 s⁻¹
- half-life [3]: 9 h
- Vd [4]: 13.8 L
- Vd [5]: 12.8 L
- Vd [6]: 0.175 L/kg
- AUC(0-t) at 48 h [7]: 785 µg·h/mL
- AUC(0-inf) [8]: 807 µg·h/mL
- clearance [9]: 16.7 mL/min
- Cmax [10]: 71.8 µg/mL
- Tmax [11]: 1.2 h
- k el [12]: 2.17e-05 s⁻¹
- half-life [13]: 9 h
- Vd [14]: 13.1 L
- Vd [15]: 12.9 L
- AUC(0-t) at 48 h [16]: 749 µg·h/mL
- AUC(0-inf) [17]: 771 µg·h/mL
- k el [18]: 1.52e-05 s⁻¹
- half-life [19]: 12.8 h
- Vd [20]: 10 L
- Vd [21]: 0.147 L/kg
- clearance [22]: 9 mL/min
- Tmax [23]: 1.8 h
- bioavailability [24]: 96%
- Activity [25]: Non-toxic
